Assay results published in patent US12624027B2, “Salts and polymorphic forms of 6-chloro-7-(4-(4-chlorobenzyl)piperazin-1-yl)-2-(1,3-dimethyl-1H-pyrazol-4-yl)-3H-imidazo[4,5-b]pyridine” (ELLIPSES PHARMA LTD, priority 2020, dated 2026).
Entries after “also recorded” stand apart in the source; their conditions may differ. Structures can show the parent of a compound that is named as a salt. Where two headings read alike, the source gives them in different places.

Columns and labels:
Type in all cases: physicochemical
[1] = Stability of the crystalline form in organic solvents and on handling (XRPD)
Procedure: XRPD analysis was carried out on a PANalytical X'pert pro with PIXcel detector (128 channels), scanning the samples between 3 and 35° 2θ. The material was gently ground to release any agglomerates and loaded onto a multi-well plate with Kapton or Mylar polymer film to support the sample. The multi-well plate was then placed into the diffractometer and analyzed using Cu K radiation (α1 λ=1.54060 Å; α2=1.54443 Å; β=1.39225 Å; α1:α2 ratio=0.5) running in transmission mode (step size 0.01300 2θ, step time 18.87 s) using 40 kV/40 mA generator settings. Data were visualized and images generated using the HighScore Plus 4.7 desktop application (PANalytical, 2017).
A slurry of Compound A fumarate lyophile is prepared by adding aliquots of solvent to the lyophile until a mobile slurry was observed. Solvents and volumes can be found in Table 1 below. The slurries are temperature cycled with agitation, between ambient (ca. 25° C.) and 40° C. in 4-hour cycles over 72 hours. Post-temperature cycling the samples were filtered via centrifugation. Isolated solids can be analysed by XRPD.

[2] = Long term-storage stability of Form 7
[3] = Dynamic vapour sorption (DVS), hygroscopicity; settings: for form change, hydration or dehydration after DVS (XRPD of recovered solids): after sorption/desorption cycles; for DVS uptake (weight increase): 25° C.
Procedure: Approximately, 10-20 mg of sample was placed into a mesh vapor sorption balance pan and loaded into a DVS Intrinsic dynamic vapour sorption balance by Surface Measurement Systems. The sample was subjected to a ramping profile from 40-90% relative humidity (RH) at 10% increments, maintaining the sample at each step until a stable weight had been achieved (dm/dt 0.004%, minimum step length 30 minutes, maximum step length 500 minutes) at 25° C. After completion of the sorption cycle, the sample was dried using the same procedure to 0% RH and then a second sorption cycle back to 40% RH. Two cycles were performed. The weight change during the sorption/desorption cycles were plotted, allowing for the hygroscopic nature of the sample to be determined. XRPD analysis was then carried out on any solid retained.

[4] = Aqueous solubility of Compound A salts (salt assessment)
Procedure: The mono-mesylate, di-mesylate, mono-hydrochloride, di-hydrochloride and fumarate salts of Compound A were assessed for compliance with the following properties identified by the inventors as being relevant to pharmaceutical suitability:
Aqueous solubility was determined by weighing out ˜3 mg of the salt form into a clean HPLC vial, adding HPLC grade water, shaking, vortexing, and/or sonicating to mix and aid dissolution as necessary. Once fully dissolved (clear solution) solubility is calculated based on the amount of water added. HPLC purity and DVS can be determined using methods described herein or methods known in the art. Processability is based on solubility of the salt form in certain excipients. Automated elemental analysis can be performed with 10 mg of the Compound A salt, using caffeine as a reference material. CHNX and the stoichiometry of the salt to the Compound A is determined. Dissolution was determined across 4 pH values (2.0, 3.8, 5.3, 7.2) using a Sirius T3 module, SOP 2070 and 2071, with 5 to 10 mg of Compound A salt compressed into a tablet disc.

[5] = 1-week stability study of Form 3 (XRPD and HPLC)
Procedure: The stability of Compound A fumarate Form 3 was assessed under ambient and stressed conditions. The following procedure was carried out. Approximately 20 mg of material was added to 3×1.5 mL glass vials. The vials were then stored under the following conditions: • Ambient light and temperature (closed vial) • 40° C./75% RH (open vial) • 80° C. (closed vial)
After 1 week the samples were collected and analyzed by XRPD and HPLC.

[6] = Thermodynamic solubility assessment in biological media (FaSSIF, FeSSIF, FaSSGF), HPLC of mother liquors
Procedure: The thermodynamic solubility of Compound A free base, Compound A fumarate Form 1 and Compound A hemi-fumarate Form 3 was assessed in 3 biological media: Fasted State Simulated Intestinal Fluid (FaSSIF); Fed State Simulated Intestinal Fluid (FeSSIF) and Fasted State Simulated Gastric Fluid (FaSSGF).
The following procedure was carried out. Approximately 10 mg of material was weighed into 3×1.5 mL glass vials. 0.02 mL aliquots of appropriate buffer were added to each vial until a final concentration of 10 mg/mL was obtained. The samples were then filtered via centrifugation and the mother liquors analyzed by HPLC.

[7] = Stability of Form 1 on storage (appearance, HPLC, water content, XRPD)
Procedure: The stability of Form 1 was tested for compliance with the following stability acceptance criteria:
Form 1 was prepared as described in Example X above. The following amounts of Form 1 were weighed into 30 ml HDPE Nalgene containers:
Each container was placed into a small grip-seal bag and incubated at the conditions above.
Visual appearance and purity by HPLC were assessed periodically (at 0, 1, 3, 6, 9, 12, and 24 months). Water content was assessed at 0, 1, 6, and 12 months by Karl Fisher titration and TGA. XRPD spectra were taken at 0, 1, 3 and 6 months.

[8] = Ambient light and temperature (closed vial)

Which results are given for `Cc1nn(C)cc1-c1nc2c(N3CCN(Cc4ccc(Cl)cc4)CC3)c(Cl)cnc2[nH]1` [Form 7, 6-chloro-7-(4-(4-chlorobenzyl)piperazin-1-yl)-2-(1,3-dimethyl-1H-pyrazol-4-yl)-3H-imidazo[4,5-b]pyridine]?
change in form on handling in organic solvents (XRPD) ([1]; methanol and TBME): without any change in form; stability under long term-storage conditions [2]: stable; hygroscopicity (in words) [3]: only slightly hygroscopic

Which results are given for `Cc1nn(C)cc1-c1nc2c(N3CCN(Cc4ccc(Cl)cc4)CC3)c(Cl)cnc2[nH]1` [Compound A fumarate, 6-chloro-7-(4-(4-chlorobenzyl)piperazin-1-yl)-2-(1,3-dimethyl-1H-pyrazol-4-yl)-3H-imidazo[4,5-b]pyridine]?
solubility ([4]; HPLC grade water, water, thermodynamic from solid): 50 to 4000 µg/mL; hygroscopicity (in words) ([3]; listed as fumarate salt): unexpectedly low hygroscopicity; hygroscopicity (in words) ([3]; listed as fumarate salt of Compound A): only slightly hygroscopic

For `Cc1nn(C)cc1-c1nc2c(N3CCN(Cc4ccc(Cl)cc4)CC3)c(Cl)cnc2[nH]1` [Form 4, 6-chloro-7-(4-(4-chlorobenzyl)piperazin-1-yl)-2-(1,3-dimethyl-1H-pyrazol-4-yl)-3H-imidazo[4,5-b]pyridine], which “stability in organic solvents (XRPD)” value ([1]; 1,4-dioxane) is on record?
Its value is “stable”.

And the “form change on drying” value ([1]; drying)?
Its value is “converts to Form 2”.

With `Cc1nn(C)cc1-c1nc2c(N3CCN(Cc4ccc(Cl)cc4)CC3)c(Cl)cnc2[nH]1` [Form 5, 6-chloro-7-(4-(4-chlorobenzyl)piperazin-1-yl)-2-(1,3-dimethyl-1H-pyrazol-4-yl)-3H-imidazo[4,5-b]pyridine] as the molecule, how does the “change in form on handling in organic solvents (XRPD)” value ([1]; benzyl alcohol) read?
The value was “without any change in form”.

For `Cc1nn(C)cc1-c1nc2c(N3CCN(Cc4ccc(Cl)cc4)CC3)c(Cl)cnc2[nH]1` [Form 3, 6-chloro-7-(4-(4-chlorobenzyl)piperazin-1-yl)-2-(1,3-dimethyl-1H-pyrazol-4-yl)-3H-imidazo[4,5-b]pyridine], which “Purity (% area) after storage” value ([5]; 40° C./75% RH (open vial)) is on record?
The value was 99.5 % area.

And the “XRPD form after storage” value ([5]; 40° C./75% RH (open vial))?
The value was “Form 3”.

What about the “Purity (% area) after storage” value ([5]; 80° C. (closed vial)) of the same molecule?
Its value is 99.6 % area.

And the “XRPD form after storage” value ([5]; 80° C. (closed vial))?
Its value is “Form 3”.

And the “Purity (% area) after storage” value [5, 8]?
The value was 99.6 % area.

What about the “XRPD form after storage” value [5, 8] of the same molecule?
The value was “Form 3”.

What about the “changes in purity after storage” value ([5]; all three storage conditions) of the same molecule?
Its value is “No changes in purity”.

What about the “visual changes after storage” value ([5]; all three storage conditions) of the same molecule?
The value was “No visual changes”.

And the “change in form on handling in organic solvents (XRPD)” value ([1]; dimethoxymethane, 2-MeTHF, water:MeOH, EtOAc, IPA, MEK, MIBK, THF, acetone, acetonitrile)?
The value was “without change in form”.

What about the “Concentration (thermodynamic solubility)” value ([6]; FaSSGF pH 1.6, listed as Compound A fumarate form 3) of the same molecule?
Its value is 2000 µg/mL.

And the “Concentration (thermodynamic solubility)” value ([6]; FaSSIF pH 6.5, listed as Compound A fumarate form 3)?
The value was under 100 µg/mL.

And the solubility thermodynamic ([6]; FaSSIF, pH 6.5, fassif, thermodynamic from solid, FaSSIF pH 6.5, read-out: Concentration (thermodynamic solubility))?
Its solubility thermodynamic is under 100 µg/mL.

And the “Concentration (thermodynamic solubility)” value ([6]; FeSSIF pH 5.0, listed as Compound A fumarate form 3)?
The value was under 100 µg/mL.

And the “form change, hydration or dehydration after DVS (XRPD of recovered solids)” value [3]?
The value was “No evidence of hydration or dehydration”.

What about the “DVS uptake (weight increase)” value ([3]; at 90% RH) of the same molecule?
Its value is “ca. 0.5 wt. %”.

For `Cc1nn(C)cc1-c1nc2c(N3CCN(Cc4ccc(Cl)cc4)CC3)c(Cl)cnc2[nH]1` [Form 6, 6-chloro-7-(4-(4-chlorobenzyl)piperazin-1-yl)-2-(1,3-dimethyl-1H-pyrazol-4-yl)-3H-imidazo[4,5-b]pyridine], which “change in form on handling in solvent (XRPD)” value ([1]; DMSO) is on record?
The value was “without any change in form”.

With `Cc1nn(C)cc1-c1nc2c(N3CCN(Cc4ccc(Cl)cc4)CC3)c(Cl)cnc2[nH]1` [Form 2, 6-chloro-7-(4-(4-chlorobenzyl)piperazin-1-yl)-2-(1,3-dimethyl-1H-pyrazol-4-yl)-3H-imidazo[4,5-b]pyridine] as the molecule, how does the “change in form (XRPD peaks, spectra, unit cell)” value ([1]; 1,4-dioxane and lyophilisation conditions) read?
The value was “no change in the characteristic XRPD peaks, spectra, or unit cell”.

Which “solubility compared to the free base of Compound A” value ([4]; aqueous) does the source give for `Cc1nn(C)cc1-c1nc2c(N3CCN(Cc4ccc(Cl)cc4)CC3)c(Cl)cnc2[nH]1` [Compound A mesylate, 6-chloro-7-(4-(4-chlorobenzyl)piperazin-1-yl)-2-(1,3-dimethyl-1H-pyrazol-4-yl)-3H-imidazo[4,5-b]pyridine] here?
The value was “unexpectedly large increase in solubility”.

Which “stability in organic solvents” value ([1]; benzyl alcohol) does the source give for `Cc1nn(C)cc1-c1nc2c(N3CCN(Cc4ccc(Cl)cc4)CC3)c(Cl)cnc2[nH]1` [Form 8, 6-chloro-7-(4-(4-chlorobenzyl)piperazin-1-yl)-2-(1,3-dimethyl-1H-pyrazol-4-yl)-3H-imidazo[4,5-b]pyridine] here?
Its value is “stable”.

Which “change in form upon exposure to organic solvents (XRPD)” value ([1]; 1-butanol, 1-propanol, 2-ethoxyethanol, acetone, acetonitrile, MEK, THF, 1,1-dimethoxymethane, or DMSO) does the source give for `Cc1nn(C)cc1-c1nc2c(N3CCN(Cc4ccc(Cl)cc4)CC3)c(Cl)cnc2[nH]1` [Form 1, 6-chloro-7-(4-(4-chlorobenzyl)piperazin-1-yl)-2-(1,3-dimethyl-1H-pyrazol-4-yl)-3H-imidazo[4,5-b]pyridine] here?
The value was “no change in form”.

What about the “Concentration (thermodynamic solubility)” value ([6]; FaSSGF pH 1.6, listed as Compound A fumarate form 1) of the same molecule?
Its value is 3400 µg/mL.

What about the “Concentration (thermodynamic solubility)” value ([6]; FaSSIF pH 6.5, listed as Compound A fumarate form 1) of the same molecule?
Its value is “insoluble; also recorded: Below LOD”.

What about the “Concentration (thermodynamic solubility)” value ([6]; FeSSIF pH 5.0, listed as Compound A fumarate form 1) of the same molecule?
Its value is 300 µg/mL.

And the “changes in XRPD / form on storage” value ([7]; 0, 1, 3 and 6 months, ambient and accelerated conditions)?
Its value is “no significant changes; also recorded: no changes in XRPD”.

And the “levels of impurities (HPLC)” value ([7]; 5° C., 25° C./60% RH, 40° C./75% RH, 55° C., over 24 months)?
Its value is at most 0.6%.

What about the water content ([7]; after 12 months, Karl Fisher titration and TGA) of the same molecule?
The water content was “below the limit of quantification”.

What about the changes in mass ([7]; storage at 5° C., 25° C./60% RH, 40° C./75% RH, 55° C.) of the same molecule?
Its changes in mass is “negligible”.

What about the “form change, hydration or dehydration after DVS (XRPD of recovered solids)” value [3] of the same molecule?
Its value is “No evidence of form change”.

And the “DVS uptake as equivalents of water” value ([3]; at 90% RH)?
The value was 0.07 equivalents of water.

What about the “DVS uptake (weight increase)” value ([3]; at 90% RH) of the same molecule?
Its value is 0.7 wt. %.
